Tests used:
dopamine neurons = test: Survival of TH-positive dopamine neurons in dissociated midbrain floor cultures; type: cell-based, mouse; conditions: for survived neurons as % compared to neurons grown in the presence of GDNF: Table 3A (FIG. 15), 5 days; for Fold change of survived neurons compared to neurons grown without growth factors: data of Table 3 divided by values of no factor
Method: To study the dopamine neurons (Yu et al., 2008; Yu and Arumae, 2008), the midbrain floors were dissected from the ventral mesencephali of 13.5-d-old NMRI strain mouse embryos. Tissues were incubated with 0.5% trypsin (ICN Biomedical), then mechanically dissociated using a large fire-polished Pasteur pipette. The neurons were grown on the poly-L-ornithine-coated (Sigma) 96-well culture plates in DMEM/F12 medium (Invitrogen) containing N2 supplement (Invitrogen) in the presence or absence of GDNF (100 ng/ml) or with CDNF, MANF, C-CDNF and C-MANF polypeptides at different concentrations for five days. Same amount of the neurons were plated to each well at the beginning of the experiments. The cultures without added neurotrophic factors served as the negative control. As the midbrain cultures contain several neuronal types, the cultures were fixed and immunostained with the antibodies to tyrosine hydroxylase (TH) (Millipore), a specific marker for the dopaminergic neurons. Images of each well were scanned by CellInsight™ and immunopositive neurons were counted by CellProfiler and CellProfiler analyst software. Data are expressed as a percentage of GDNF-maintained TH-positive neurons. All experiments were repeated at least three times on the independent cultures. The results were expressed as the mean the SEM and were tested for the significance by either one-way ANOVA and Tukey's post hoc test or by two-tailed Student's t-test. The null hypothesis was rejected at P≤0.05.

ER stressed SCG neurons = test: Survival of tunicamycin-treated (ER stressed) SCG sympathetic neurons after microinjection; type: cell-based, mice; conditions: for survived neurons as % compared to neurons grown in the presence of NGF: Table 1A (FIG. 14), microinjected into cytoplasm, tunicamycin 2 μM, CDNF (400); for Fold change of survived neurons compared to neurons injected with PBS: data of Table 1 divided by values of PBS
Method: Non-neuronal cells were removed by extensive preplating. Almost pure neurons were cultured in polyornithine/laminin (Sigma)-coated 35-mm plastic dishes in the small-size standard microislands in the Neurobasal medium and B27 supplement (Invitrogen/Gibco) in the presence of 30 ng/ml mouse nerve growth factor (NGF) (Promega) for 5-6 days. NGF was deprived by extensive washing and addition of the function-blocking anti-NGF antibodies (Roche). The neurons were pressure-microinjected with special neuronal microinjection equipment (Hellman et al., 2011; Hamner et al., 2001; Lindholm et al., 2002; Sun et al., 2001; Yu et al., 2003)(Sun et al., 2001; Sun et al., 2003). For the survival assay, all neurons on the microislands were counted in the beginning (initial number) and the end (three days) of the experiment and expressed as % of initial.
Microinjection of the sympathetic neurons was performed as described earlier (Yu, L. Y., Jokitalo, E., Sun, Y. F., Mehlen, P., Lindholm, D., Saarma, M., and Arumae, U. (2003) J Cell Biol. 163, 987-997). Plasmids for CDNF have been described earlier. Briefly, newborn mouse SCG neurons were grown with NGF (Promega) for 5-6 days then the nuclei were microinjected with the expression plasmids for full-length (FL)-CDNF and C-CDNF together with a reporter plasmid for enhanced green fluorescent protein (EGFP), using vector concentration of 10 ng/ul in each experiment. […] For protein microinjection, recombinant full length (FL)-CDNF, C-CDNF proteins in PBS at 200 ng/ul were microinjected directly into the cytoplasm together with fluorescent reporter Dextran Texas Red (MW 70000 Da) (Invitrogen, Molecular Probes) that facilitates identification of the successfully injected neurons. Next day tunicamycin (2 μM) was added, and after 3 days the living fluorescent neurons were counted. Living fluorescent (EGFP-expressing or Dextran Texas Red-containing) neurons were “blindly” counted three days later and expressed as percent of initial living fluorescent neurons counted 2-3 hours after microinjection. The experiments with plasmids were repeated on independent cultures 5 times for plasmid experiment, whereas four independent protein injection experiments were performed. On average, 50-80 neurons were successfully injected per experimental group. The results were expressed as the mean±the SEM. Data of each experimental group was compared with control plasmid PCR3.1 (vector) or PBS (in the protein injection experiments) by one-way ANOVA and post hoc Dunnett's t test. The null hypothesis was rejected at p<0.05.

TLDLASVDLRKMRVAELKQILHSWGEECRACAEKTDYVNLIQELAPKYA (listed as Homo sapiens) [pep4]
survived neurons as % compared to neurons grown in the presence of GDNF (dopamine neurons; AVG, 1 ng/ml): 69.14 % GDNF
survived neurons as % compared to neurons grown in the presence of GDNF (dopamine neurons; AVG, 10 ng/ml): 70.54 % GDNF
survived neurons as % compared to neurons grown in the presence of GDNF (dopamine neurons; AVG, 100 ng/ml): 70.14 % GDNF
survived neurons as % compared to neurons grown in the presence of GDNF (dopamine neurons; AVG, 1000 ng/ml): 76.27 % GDNF
survived neurons as % compared to neurons grown in the presence of GDNF (dopamine neurons; exp1, 1 ng/ml): 61.71 % GDNF
survived neurons as % compared to neurons grown in the presence of GDNF (dopamine neurons; exp1, 10 ng/ml): 64.44 % GDNF
survived neurons as % compared to neurons grown in the presence of GDNF (dopamine neurons; exp1, 100 ng/ml): 69.02 % GDNF
survived neurons as % compared to neurons grown in the presence of GDNF (dopamine neurons; exp1, 1000 ng/ml): 68.35 % GDNF
survived neurons as % compared to neurons grown in the presence of GDNF (dopamine neurons; exp2, 1 ng/ml): 79.99 % GDNF
survived neurons as % compared to neurons grown in the presence of GDNF (dopamine neurons; exp2, 10 ng/ml): 81.47 % GDNF
survived neurons as % compared to neurons grown in the presence of GDNF (dopamine neurons; exp2, 100 ng/ml): 73.24 % GDNF
survived neurons as % compared to neurons grown in the presence of GDNF (dopamine neurons; exp2, 1000 ng/ml): 83.39 % GDNF
survived neurons as % compared to neurons grown in the presence of GDNF (dopamine neurons; exp3, 1 ng/ml): 65.71 % GDNF
survived neurons as % compared to neurons grown in the presence of GDNF (dopamine neurons; exp3, 10 ng/ml): 65.71 % GDNF
survived neurons as % compared to neurons grown in the presence of GDNF (dopamine neurons; exp3, 100 ng/ml): 68.14 % GDNF
survived neurons as % compared to neurons grown in the presence of GDNF (dopamine neurons; exp3, 1000 ng/ml): 77.07 % GDNF
Fold change of survived neurons compared to neurons grown without growth factors (dopamine neurons; Table 4, AVG, 1 ng/ml): 1.12 fold
Fold change of survived neurons compared to neurons grown without growth factors (dopamine neurons; Table 4, AVG, 10 ng/ml): 1.14 fold
Fold change of survived neurons compared to neurons grown without growth factors (dopamine neurons; Table 4, AVG, 100 ng/ml): 1.14 fold
Fold change of survived neurons compared to neurons grown without growth factors (dopamine neurons; Table 4, AVG, 1000 ng/ml): 1.24 fold
Fold change of survived neurons compared to neurons grown without growth factors (dopamine neurons; Table 4, exp1, 1 ng/ml): 1.08 fold
Fold change of survived neurons compared to neurons grown without growth factors (dopamine neurons; Table 4, exp1, 10 ng/ml): 1.13 fold
Fold change of survived neurons compared to neurons grown without growth factors (dopamine neurons; Table 4, exp1, 100 ng/ml): 1.21 fold
Fold change of survived neurons compared to neurons grown without growth factors (dopamine neurons; Table 4, exp1, 1000 ng/ml): 1.20 fold
Fold change of survived neurons compared to neurons grown without growth factors (dopamine neurons; Table 4, exp2, 1 ng/ml): 1.27 fold
Fold change of survived neurons compared to neurons grown without growth factors (dopamine neurons; Table 4, exp2, 10 ng/ml): 1.29 fold
Fold change of survived neurons compared to neurons grown without growth factors (dopamine neurons; Table 4, exp2, 100 ng/ml): 1.16 fold
Fold change of survived neurons compared to neurons grown without growth factors (dopamine neurons; Table 4, exp2, 1000 ng/ml): 1.32 fold
Fold change of survived neurons compared to neurons grown without growth factors (dopamine neurons; Table 4, exp3, 1 ng/ml): 1.01 fold
Fold change of survived neurons compared to neurons grown without growth factors (dopamine neurons; Table 4, exp3, 10 ng/ml): 1.01 fold
Fold change of survived neurons compared to neurons grown without growth factors (dopamine neurons; Table 4, exp3, 100 ng/ml): 1.05 fold
Fold change of survived neurons compared to neurons grown without growth factors (dopamine neurons; Table 4, exp3, 1000 ng/ml): 1.19 fold
survived neurons as % compared to neurons grown in the presence of NGF (ER stressed SCG neurons; AVG of exp1-2): 79.15 % NGF
survived neurons as % compared to neurons grown in the presence of NGF (ER stressed SCG neurons; exp1, counted after 3 days): 81.25 % NGF
survived neurons as % compared to neurons grown in the presence of NGF (ER stressed SCG neurons; exp2, counted after 3 days): 77.05 % NGF
Fold change of survived neurons compared to neurons injected with PBS (ER stressed SCG neurons; Table 2, AVG): 2.16 Fold to PBS
Fold change of survived neurons compared to neurons injected with PBS (ER stressed SCG neurons; Table 2, exp1): 2.37 Fold to PBS
Fold change of survived neurons compared to neurons injected with PBS (ER stressed SCG neurons; Table 2, exp2): 1.94 Fold to PBS

TLDLASVDLRKMRVAELKQILHSWGEECRACAEKTDYVNLIQELAPKYAATHPKTEL (listed as Homo sapiens) [pep2]
survived neurons as % compared to neurons grown in the presence of GDNF (dopamine neurons; AVG, 1 ng/ml): 67.69 % GDNF
survived neurons as % compared to neurons grown in the presence of GDNF (dopamine neurons; AVG, 10 ng/ml): 69.82 % GDNF
survived neurons as % compared to neurons grown in the presence of GDNF (dopamine neurons; AVG, 100 ng/ml): 68.98 % GDNF
survived neurons as % compared to neurons grown in the presence of GDNF (dopamine neurons; AVG, 1000 ng/ml): 66.30 % GDNF
survived neurons as % compared to neurons grown in the presence of GDNF (dopamine neurons; exp1, 1 ng/ml): 81.18 % GDNF
survived neurons as % compared to neurons grown in the presence of GDNF (dopamine neurons; exp1, 10 ng/ml): 74.74 % GDNF
survived neurons as % compared to neurons grown in the presence of GDNF (dopamine neurons; exp1, 100 ng/ml): 81.00 % GDNF
survived neurons as % compared to neurons grown in the presence of GDNF (dopamine neurons; exp1, 1000 ng/ml): 83.01 % GDNF
survived neurons as % compared to neurons grown in the presence of GDNF (dopamine neurons; exp2, 1 ng/ml): 52.61 % GDNF
survived neurons as % compared to neurons grown in the presence of GDNF (dopamine neurons; exp2, 10 ng/ml): 58.93 % GDNF
survived neurons as % compared to neurons grown in the presence of GDNF (dopamine neurons; exp2, 100 ng/ml): 47.98 % GDNF
survived neurons as % compared to neurons grown in the presence of GDNF (dopamine neurons; exp2, 1000 ng/ml): 52.95 % GDNF
survived neurons as % compared to neurons grown in the presence of GDNF (dopamine neurons; exp3, 1 ng/ml): 69.28 % GDNF
survived neurons as % compared to neurons grown in the presence of GDNF (dopamine neurons; exp3, 10 ng/ml): 75.80 % GDNF
survived neurons as % compared to neurons grown in the presence of GDNF (dopamine neurons; exp3, 100 ng/ml): 77.95 % GDNF
survived neurons as % compared to neurons grown in the presence of GDNF (dopamine neurons; exp3, 1000 ng/ml): 62.94 % GDNF
Fold change of survived neurons compared to neurons grown without growth factors (dopamine neurons; Table 4, AVG, 1 ng/ml): 1.11 fold
Fold change of survived neurons compared to neurons grown without growth factors (dopamine neurons; Table 4, AVG, 10 ng/ml): 1.14 fold
Fold change of survived neurons compared to neurons grown without growth factors (dopamine neurons; Table 4, AVG, 100 ng/ml): 1.13 fold
Fold change of survived neurons compared to neurons grown without growth factors (dopamine neurons; Table 4, AVG, 1000 ng/ml): 1.09 fold
Fold change of survived neurons compared to neurons grown without growth factors (dopamine neurons; Table 4, exp1, 1 ng/ml): 1.42 fold
Fold change of survived neurons compared to neurons grown without growth factors (dopamine neurons; Table 4, exp1, 10 ng/ml): 1.31 fold
Fold change of survived neurons compared to neurons grown without growth factors (dopamine neurons; Table 4, exp1, 100 ng/ml): 1.42 fold
Fold change of survived neurons compared to neurons grown without growth factors (dopamine neurons; Table 4, exp1, 1000 ng/ml): 1.45 fold
Fold change of survived neurons compared to neurons grown without growth factors (dopamine neurons; Table 4, exp2, 1 ng/ml): 0.83 fold
Fold change of survived neurons compared to neurons grown without growth factors (dopamine neurons; Table 4, exp2, 10 ng/ml): 0.93 fold
Fold change of survived neurons compared to neurons grown without growth factors (dopamine neurons; Table 4, exp2, 100 ng/ml): 0.76 fold
Fold change of survived neurons compared to neurons grown without growth factors (dopamine neurons; Table 4, exp2, 1000 ng/ml): 0.84 fold
Fold change of survived neurons compared to neurons grown without growth factors (dopamine neurons; Table 4, exp3, 1 ng/ml): 1.07 fold
Fold change of survived neurons compared to neurons grown without growth factors (dopamine neurons; Table 4, exp3, 10 ng/ml): 1.17 fold
Fold change of survived neurons compared to neurons grown without growth factors (dopamine neurons; Table 4, exp3, 100 ng/ml): 1.20 fold
Fold change of survived neurons compared to neurons grown without growth factors (dopamine neurons; Table 4, exp3, 1000 ng/ml): 0.97 fold
survived neurons as % compared to neurons grown in the presence of NGF (ER stressed SCG neurons; AVG of exp1-2): 77.52 % NGF
survived neurons as % compared to neurons grown in the presence of NGF (ER stressed SCG neurons; exp1, counted after 3 days): 79.71 % NGF
survived neurons as % compared to neurons grown in the presence of NGF (ER stressed SCG neurons; exp2, counted after 3 days): 75.32 % NGF
Fold change of survived neurons compared to neurons injected with PBS (ER stressed SCG neurons; Table 2, AVG): 2.11 Fold to PBS
Fold change of survived neurons compared to neurons injected with PBS (ER stressed SCG neurons; Table 2, exp1): 2.32 Fold to PBS
Fold change of survived neurons compared to neurons injected with PBS (ER stressed SCG neurons; Table 2, exp2): 1.90 Fold to PBS
